Measured values reported in PubChem BioAssay (NCI).
Several values for one entry are separate records, joined by “and”; a condition that tells them apart may be missing. Equal entries are not always repeated.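 96-well plates; 48 h exposure; 5 concentrations. Endpoints by linear interpolation between flanking doses. Not reached: highest tested concentration assigned. GI50 = concentration required for 50% inhibition of growth. TGI: total growth inhibition.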 Where a SMILES comes first, the peptide text is derived from it.

How the values were obtained:
Assay in all cases: NCI tumour cell line growth inhibition, 48 h; in the data active = GI50 below about 0.43 µM; inactive = the rest
SN12K1 renal = tested on: SN12K1 renal
SW-620 colon = tested on: SW-620 colon
SNB-19 CNS = tested on: SNB-19 CNS
OVCAR-4 ovarian = tested on: OVCAR-4 ovarian
SF-295 CNS = tested on: SF-295 CNS
NCI-H460 lung = tested on: NCI-H460 lung
HL-60(TB) leukemia = tested on: HL-60(TB) leukemia
LOX IMVI melanoma = tested on: LOX IMVI melanoma
SK-OV-3 ovarian = tested on: SK-OV-3 ovarian
NCI-H522 lung = tested on: NCI-H522 lung
HCT-116 colon = tested on: HCT-116 colon
NCI-H23 lung = tested on: NCI-H23 lung
U251 CNS = tested on: U251 CNS
SK-MEL-5 melanoma = tested on: SK-MEL-5 melanoma
A549 NSCLC = tested on: A549 NSCLC
MCF7 breast = tested on: MCF7 breast
XF 498 CNS = tested on: XF 498 CNS
HCC-2998 colon = tested on: HCC-2998 colon
M19-MEL melanoma = tested on: M19-MEL melanoma
IGROV1 ovarian = tested on: IGROV1 ovarian
HCT-15 colon = tested on: HCT-15 colon
RXF 393 renal = tested on: RXF 393 renal
SK-MEL-2 melanoma = tested on: SK-MEL-2 melanoma
MOLT-4 leukemia = tested on: MOLT-4 leukemia
NCI-H226 lung = tested on: NCI-H226 lung
K-562 leukemia = tested on: K-562 leukemia
OVCAR-8 ovarian = tested on: OVCAR-8 ovarian
CCRF-CEM leukemia = tested on: CCRF-CEM leukemia
HOP-62 NSCLC = tested on: HOP-62 NSCLC
SNB-78 CNS = tested on: SNB-78 CNS
DMS 273 small cell lung = tested on: DMS 273 small cell lung
OVCAR-3 ovarian = tested on: OVCAR-3 ovarian
A498 renal = tested on: A498 renal
SNB-75 CNS = tested on: SNB-75 CNS
EKVX NSCLC = tested on: EKVX NSCLC
SK-MEL-28 melanoma = tested on: SK-MEL-28 melanoma
HT29 colon = tested on: HT29 colon
UO-31 renal = tested on: UO-31 renal
RPMI-8226 leukemia = tested on: RPMI-8226 leukemia
DMS 114 small cell lung = tested on: DMS 114 small cell lung
CAKI-1 renal = tested on: CAKI-1 renal
UACC-62 melanoma = tested on: UACC-62 melanoma
HOP-18 NSCLC = tested on: HOP-18 NSCLC
SF-539 CNS = tested on: SF-539 CNS
DLD-1 colon = tested on: DLD-1 colon
SF-268 CNS = tested on: SF-268 CNS
UACC-257 melanoma = tested on: UACC-257 melanoma
OVCAR-5 ovarian = tested on: OVCAR-5 ovarian
P388/ADR leukemia = tested on: P388/ADR leukemia
HOP-92 NSCLC = tested on: HOP-92 NSCLC
P388 leukemia = tested on: P388 leukemia
COLO 205 colon = tested on: COLO 205 colon
KM12 colon = tested on: KM12 colon
MALME-3M melanoma = tested on: MALME-3M melanoma
SN12C renal = tested on: SN12C renal
NCI/ADR-RES ovarian = tested on: NCI/ADR-RES ovarian
TK-10 renal = tested on: TK-10 renal
RXF-631 renal = tested on: RXF-631 renal
786-0 renal = tested on: 786-0 renal
LXFL 529 NSCLC = tested on: LXFL 529 NSCLC
KM20L2 colon = tested on: KM20L2 colon
M14 melanoma = tested on: M14 melanoma
ACHN renal = tested on: ACHN renal
SR leukemia = tested on: SR leukemia

CC1NC(=O)CNC(=O)CNC(=O)C(Cc2ccc(O)cc2)NC(=O)C(C(C)C)NC(=O)C(C)NC1=O (stereo not drawn) (cyclo(GGAAVY); configuration not given here)
> 100 µM: TGI (SN12K1 renal) | TGI (SW-620 colon) | TGI (SNB-19 CNS) | TGI (SF-295 CNS) | TGI (NCI-H460 lung) | TGI (HL-60(TB) leukemia) | TGI (LOX IMVI melanoma) | TGI (SK-OV-3 ovarian) | TGI (NCI-H522 lung) | TGI (HCT-116 colon) | TGI (NCI-H23 lung) | TGI (U251 CNS) | TGI (SK-MEL-5 melanoma) | TGI (A549 NSCLC) | TGI (MCF7 breast) | TGI (XF 498 CNS) | TGI (HCC-2998 colon) | TGI (M19-MEL melanoma) | TGI (IGROV1 ovarian) | TGI (HCT-15 colon) | TGI (RXF 393 renal) | TGI (SK-MEL-2 melanoma) | TGI (MOLT-4 leukemia) | TGI (NCI-H226 lung) | TGI (K-562 leukemia) | TGI (OVCAR-8 ovarian) | TGI (CCRF-CEM leukemia) | TGI (HOP-62 NSCLC) | TGI (SNB-78 CNS) | TGI (DMS 273 small cell lung) | TGI (OVCAR-3 ovarian) | TGI (A498 renal) | TGI (SNB-75 CNS) | TGI (EKVX NSCLC) | TGI (SK-MEL-28 melanoma) | TGI (HT29 colon) | TGI (UO-31 renal) | TGI (RPMI-8226 leukemia) | TGI (DMS 114 small cell lung) | TGI (CAKI-1 renal) | TGI (UACC-62 melanoma) | TGI (HOP-18 NSCLC) | TGI (SF-539 CNS) | TGI (DLD-1 colon) | TGI (SF-268 CNS) | TGI (UACC-257 melanoma) | TGI (OVCAR-5 ovarian) | TGI (P388/ADR leukemia) | TGI (HOP-92 NSCLC) | TGI (P388 leukemia) | TGI (COLO 205 colon) | TGI (KM12 colon) | TGI (MALME-3M melanoma) | TGI (SN12C renal) | TGI (NCI/ADR-RES ovarian)
> 100 µM and 22.7 µM: TGI (OVCAR-4 ovarian)
inactive: GI50 (OVCAR-4 ovarian) > 100 µM | GI50 (NCI-H522 lung) > 100 µM | GI50 (RXF 393 renal) > 100 µM | GI50 (K-562 leukemia) > 100 µM | GI50 (SNB-78 CNS) > 100 µM | GI50 (A498 renal) 75.6 µM | GI50 (HOP-92 NSCLC) > 100 µM | GI50 (MALME-3M melanoma) > 100 µM

O=P(c1ccccc1)(c1ccccc1)C1CC=C(c2ccccc2)C2(CCCC2)C1 (stereo not drawn)
76.9 µM: TGI (HOP-18 NSCLC)
> 100 µM: TGI (SW-620 colon) | TGI (SNB-19 CNS) | TGI (OVCAR-4 ovarian) | TGI (SF-295 CNS) | TGI (NCI-H460 lung) | TGI (LOX IMVI melanoma) | TGI (SK-OV-3 ovarian) | TGI (HCT-116 colon) | TGI (NCI-H23 lung) | TGI (U251 CNS) | TGI (SK-MEL-5 melanoma) | TGI (A549 NSCLC) | TGI (XF 498 CNS) | TGI (M19-MEL melanoma) | TGI (TK-10 renal) | TGI (IGROV1 ovarian) | TGI (HCT-15 colon) | TGI (RXF 393 renal) | TGI (SK-MEL-2 melanoma) | TGI (NCI-H226 lung) | TGI (K-562 leukemia) | TGI (OVCAR-8 ovarian) | TGI (CCRF-CEM leukemia) | TGI (RXF-631 renal) | TGI (SNB-78 CNS) | TGI (DMS 273 small cell lung) | TGI (OVCAR-3 ovarian) | TGI (A498 renal) | TGI (SNB-75 CNS) | TGI (EKVX NSCLC) | TGI (SK-MEL-28 melanoma) | TGI (786-0 renal) | TGI (HT29 colon) | TGI (DMS 114 small cell lung) | TGI (CAKI-1 renal) | TGI (LXFL 529 NSCLC) | TGI (KM20L2 colon) | TGI (UACC-62 melanoma) | TGI (SF-539 CNS) | TGI (DLD-1 colon) | TGI (SF-268 CNS) | TGI (UACC-257 melanoma) | TGI (OVCAR-5 ovarian) | TGI (KM12 colon) | TGI (MALME-3M melanoma) | TGI (SN12C renal) | TGI (M14 melanoma)
67.5 µM: TGI (HOP-92 NSCLC)
53.1 µM: TGI (MOLT-4 leukemia)
50.7 µM: TGI (HL-60(TB) leukemia)
52.1 µM: TGI (RPMI-8226 leukemia)
56.7 µM: TGI (COLO 205 colon)
75.3 µM: TGI (UO-31 renal)

NC(N)=NCCCC(N=c1c2ccccc2n(O)c2ccccc12)C(=O)O (stereo not drawn)
> 100 µM: TGI (SW-620 colon) | TGI (SNB-19 CNS) | TGI (OVCAR-4 ovarian) | TGI (SF-295 CNS) | TGI (NCI-H460 lung) | TGI (LOX IMVI melanoma) | TGI (SK-OV-3 ovarian) | TGI (NCI-H522 lung) | TGI (HCT-116 colon) | TGI (NCI-H23 lung) | TGI (U251 CNS) | TGI (A549 NSCLC) | TGI (HCC-2998 colon) | TGI (M19-MEL melanoma) | TGI (TK-10 renal) | TGI (IGROV1 ovarian) | TGI (HCT-15 colon) | TGI (SK-MEL-2 melanoma) | TGI (MOLT-4 leukemia) | TGI (NCI-H226 lung) | TGI (K-562 leukemia) | TGI (OVCAR-8 ovarian) | TGI (CCRF-CEM leukemia) | TGI (RXF-631 renal) | TGI (HOP-62 NSCLC) | TGI (DMS 273 small cell lung) | TGI (OVCAR-3 ovarian) | TGI (A498 renal) | TGI (EKVX NSCLC) | TGI (ACHN renal) | TGI (786-0 renal) | TGI (UO-31 renal) | TGI (DMS 114 small cell lung) | TGI (LXFL 529 NSCLC) | TGI (KM20L2 colon) | TGI (UACC-62 melanoma) | TGI (HOP-18 NSCLC) | TGI (DLD-1 colon) | TGI (SF-268 CNS) | TGI (OVCAR-5 ovarian) | TGI (COLO 205 colon) | TGI (KM12 colon) | TGI (MALME-3M melanoma) | TGI (SN12C renal) | TGI (M14 melanoma)
75.7 µM: TGI (RPMI-8226 leukemia)
66.6 µM: TGI (SK-MEL-5 melanoma)
58.5 µM: TGI (HL-60(TB) leukemia)
90.1 µM: TGI (SK-MEL-28 melanoma)
87.6 µM: TGI (SNB-75 CNS)

CSC(=S)c1ccc(C(=S)SC)cc1
> 100 µM: TGI (SW-620 colon) | TGI (SNB-19 CNS) | TGI (OVCAR-4 ovarian) | TGI (SF-295 CNS) | TGI (NCI-H460 lung) | TGI (HL-60(TB) leukemia) | TGI (LOX IMVI melanoma) | TGI (SK-OV-3 ovarian) | TGI (NCI-H522 lung) | TGI (HCT-116 colon) | TGI (NCI-H23 lung) | TGI (U251 CNS) | TGI (SK-MEL-5 melanoma) | TGI (A549 NSCLC) | TGI (XF 498 CNS) | TGI (HCC-2998 colon) | TGI (M19-MEL melanoma) | TGI (SR leukemia) | TGI (TK-10 renal) | TGI (IGROV1 ovarian) | TGI (HCT-15 colon) | TGI (RXF 393 renal) | TGI (MOLT-4 leukemia) | TGI (NCI-H226 lung) | TGI (K-562 leukemia) | TGI (OVCAR-8 ovarian) | TGI (RXF-631 renal) | TGI (HOP-62 NSCLC) | TGI (SNB-78 CNS) | TGI (DMS 273 small cell lung) | TGI (OVCAR-3 ovarian) | TGI (A498 renal) | TGI (SNB-75 CNS) | TGI (EKVX NSCLC) | TGI (786-0 renal) | TGI (HT29 colon) | TGI (UO-31 renal) | TGI (RPMI-8226 leukemia) | TGI (DMS 114 small cell lung) | TGI (CAKI-1 renal) | TGI (LXFL 529 NSCLC) | TGI (KM20L2 colon) | TGI (UACC-62 melanoma) | TGI (HOP-18 NSCLC) | TGI (SF-539 CNS) | TGI (DLD-1 colon) | TGI (SF-268 CNS) | TGI (UACC-257 melanoma) | TGI (OVCAR-5 ovarian) | TGI (HOP-92 NSCLC) | TGI (COLO 205 colon) | TGI (KM12 colon) | TGI (MALME-3M melanoma) | TGI (SN12C renal) | TGI (M14 melanoma)
